Measurements: paper PMC5641551, “Chemical Proteomics for Target Discovery of Head-to-Tail Cyclized Mini-Proteins” (Frontiers in Chemistry, 2017)
No end group written: not given here.

System: GST-tagged 14-3-3β
Assay: co-precipitation of GST-tagged 14-3-3β with cyclotide probe and competitors
Format: binding
Procedure: Splenocytes or Jurkat cells were lysed with 25 mM Tris-HCl pH 7.4, 40 mM KCl, 2.5 mM MgSO4 2.5 mM CaCl2, 2% (v/v) glycerol, 1 mM EDTA under repeated freeze-thaw cycles and 10 min sonification. All experiments were performed in buffer with 1x complete protease inhibitor cocktail (Hoffman-La Roche, Basel, Switzerland). Cell membranes and debris were pelleted for 30 min at 16,000 × g and the supernatant corresponds to the “soluble cell lysate.” Protein concentration was determined using a bicinchoninic acid assay kit (Thermo Scientific) and DTT (1 mM) was added to keep redox potential constant during binding experiments. Photo-affinity pull down samples were submitted to denaturing sodium dodecyl sulfate polyacrylamide gel electrophoresis (PAGE). For immunoblotting according to earlier published protocols (Gruber et al., [2007]; Bergmayr et al., [2013]) proteins were semi-dry transferred onto a nitrocellulose membrane 0.45 μM (Amersham Protran, GE Healthcare, Austria) using a Fast Semi-dry blotter (Bio-Rad) at 0.25 mA per gel for 1 h. Primary rabbit anti-GFP antibody (1:5,000) was from Invitrogen (A6455), rabbit anti-GST antibody (1:2,500) from Abcam (ab9085), and mouse anti-human calcineurin subunit A antibody (1:2,000) clone BE2.1 from eBioscience. Secondary ECL anti-mouse (NA931V) or ECL anti-rabbit (NA934VS) IgG antibodies (1:10,000) were conjugated with horse radish peroxidase (GE Healthcare). Chemo-luminescence signals were detected on an imaging system FluorChem HD2 (Alpha Innotech, CA, United States). For silver staining protein gels were treated immediately after electrophoresis with fixing solution EtOH/ddH2O/acetic acid 50/40/10% (v/v/v) for 20 min. Gels had to be washed acid free, first with 50% (v/v) EtOH for 10 min and with ddH2O for 2 h. Gels were exposed to sensitization buffer 0.025% Na2S2O3 in ddH2O for 3 min, followed by 2 min wash with ddH2O. Gels were silver loaded using a 0.15% AgNO3 solution for 45 min in the dark. The protein bands were stained in development buffer formaldehyde/Na2CO3 0.04/2% (v/w) under rigorous shaking. The reaction was quenched with 5% (v/v) acetic acid solution and the gels were stored until further processing in the stopping buffer at 4°C. Pixel quantification was carried out using ImageJ v1.47 (National Institute for Health).
Biotin-LC-LC-labeled (ThermoFisher) peptides (1–5 nmoles) with or without ([…]) were incubated with Jurkat cell or murine splenocyte cell lysates (150–500 μg proteins) for 2 h at 4°C in the presence of protease inhibitors. UV-activation of photo-crosslinking moiety benzophenone was induced by irradiation at 360 nm on ice for 15 min (Stratalinker, Stratagene, CA, United States). […]

CGETCVGGTCNTPGCKCSWPVCTRNGLPV (also: bicyclic or more (positions not given here)) [[T20K]kB1, synthetic cyclotide drug candidate, Thr20 to Lys mutant of kalata B1]
binding to 14-3-3 family proteins (conclusion in words from competition co-precipitation): can bind to 14-3-3 family proteins
binding of probe [T20K,W23Bpa]kB1 to 14-3-3β in presence of competitor (immunoblot and far Western blot, 2 h at 4°C, competitors 150–500-fold molar excess): significantly altered
